Results published in US6960566B1, “Compositions and methods for treatment of cancer” (The Wister Institute of Anatomy and Biology, priority 1998, dated 2005).
“Also recorded” adds a separate entry of the source. Each block holds one molecule with its values, some of them ahead of it.

Experiments:
[1] = test system: BR55-2; assay: ELISA, binding of MAb BR55-2 to monovalent peptide; settings: series of ELISA assays
Source text: The Trp residue occupies a volume associated with the Fuca 1,3 moiety, and the Leu residue occupies the volume of the β Gal moiety and has the hydrophobic interaction of β Gal. The Tyr residue occupies a position not associated with LeY binding to B3. The computer modeling disclosed that the low energy binding mode conformation adopts a turn region similar to that observed for the YPY motif in binding to ConA [Kaur et al., 1997, J. Biol. Chem. 272:5539-5543]. This conformation lends itself to the Tyr residue of the peptide to potentially interact with several residues in CDR2 of the heavy chain of B3 that include Asp H53, Ser H52, Ser H55, or Ser H56.

[2] = test system: BR15-6A MAb; assay: ELISA, binding of MAb BR15-6A to solid phase coated peptide; settings: solid phase coated peptide at 1 nM to 1 mM
Protocol: Peptide SEQ ID NO: 99 from the family of LeY-mimicking peptides was selected because it contained a consensus motif which appeared in multiple bacterial isolates after five rounds of panning with the BR15-6A MAb. This peptide was chemically synthesized and its binding to BR15-6A MAb was evaluated. […] It likely represents a conformational mimic of the LeY structure. This peptide is further evaluated in competition assays with native LeY containing neoglycoprotein and LeY-specific MAbs BR15-6A and BR55-2.

[3] = test system: MAb BR15-6A; assay: Inhibition of MAb BR15-6A binding to LeY carbohydrate
Protocol: (§1) The peptide competition/inhibition assays referred to throughout the following examples are performed as follows: Test peptides at concentrations ranging from 10 nM to 1 mM were preincubated with 100 μl of the MAb NS19-9 (5 μg/ml) diluted in 10% […] free horse serum/PBS at room temperature. Fifty μl of preincubated inhibition complex antibody-peptide is added to each well of 96-well plate and incubated at 30-37° C. for 1 hour. […] The developed blue color was read at 450 nm after stopping the reaction with 100 μl 1M phosphoric acid. Fifty % inhibitory concentration (IC50) was calculated by non-linear least-squares regression to a four-parameter logistic equation. […]
Peptide SEQ ID NO: 99 from the family of LeY-mimicking peptides was selected because it contained a consensus motif which appeared in multiple bacterial isolates after five rounds of panning with the BR15-6A MAb. This peptide was chemically synthesized and its binding to BR15-6A MAb was evaluated. […] This peptide is further evaluated in competition assays with native LeY containing neoglycoprotein and LeY-specific MAbs BR15-6A and BR55-2.

[4] = test system: neutrophil influx into chemically irritated peritoneum; assay: Neutrophil recruitment in Zymosan-induced peritonitis (acute inflammation model in vivo); settings: mice, Zymosan i.p.
Protocol: The accumulation of neutrophils is a characteristic feature of acute and chronic inflammatory disease, and early steps in the recruitment of these cells to the site of inflammation depends upon E-selectin-mediated interaction. Thus, inhibition of neutrophil recruitment in vivo is an important test of the ability of potential therapeutic agents to inhibit E-selectin-mediated events. […] Because SA-Le^a binds to E-selectin, the adhesion-blocking ability of an SA-Le^a peptido-mimetic was measured in a neutrophil-recruitment in vivo model of acute inflammation.
The bioactivity of the 12-mer peptide SEQ ID NO: 1 which mimics the SA-Le^a carbohydrate structure was determined by administering Zymosan™ intraperitoneally (i.p.) into mice [see, e.g., Martens et al. 1995, J. Biol. Chem. 270:21129-21136; Rao et al. 1994, J. Biol. Chem. 269:19663-19666], followed three hours later by an intravenous (i.v.) injection of peptide SEQ ID NO: 1 (1 mg). Neutrophils were harvested and counted one hour later.
Derm. 78:206-209]. […] The reduction in enzyme activity is apparently due to reduction in neutrophil recruitment in mice treated with peptide mimicking E-selectin ligand SA-Le^a. This peptide inhibits E-selectin function in vivo.

[5] = test system: MAb NS19-9; assay: Competition ELISA: peptide inhibition of MAb NS19-9 binding to solid phase SA-Le^a-PAA
Protocol: as §1, with “hour. After 1 hour of incubation, MAb/peptide complex mixtures were transferred to wells precoated with a constant amount of neoglycoprotein containing coupled multivalent carbohydrate determinant (SA-Le^a-polyacrylamide matrix (SA-LeX-PAA or LeY-PAA) (5 μg/well) and allowed to bind for 1 hour followed by blocking with 10% γ-globulin-free horse serum for 2 hours at room temperature. Wells were washed with 100 μl PBS four times. Goat anti-mouse immunoglobulin G conjugated to horse radish peroxidase (Boehringer-Manheim, Indianapolis, Ind.) was diluted 1000-fold with 10% γ-globulin free horse serum/PBS and 100 μl was added in each well and incubated at 30-37° C. for 1 hour and washed with 100 μl PBS five times.” for “hour.”

[6] = test system: MAb NS19-9; assay: ELISA, direct binding of MAb NS19-9 to peptide
[7] = test system: BR55-2; assay: Competition of peptide with LeY for BR55-2 binding
[8] = target: MAb NS19-9; assay: competition ELISA; peptide preincubated with MAb NS19-9, free MAb binding to SA-Le^a-PAA

Molecule: DEVRPDLISTEE (peptido-mimetic of a Lewis antigen) [SEQ ID NO: 99]
- binding of MAb BR15-6A to peptide (in words) [2]: Dose-dependent binding
- inhibition of MAb BR15-6A binding to LeY (in words) [3]: inhibit MAb BR15-6A binding

Molecule: DLWDWVVGKPAG [SEQ ID NO: 1]
- myeloperoxidase activity in collected cells (in words) ([4]; 1 mg peptide i.v.): Significant reduction of enzymatic activity
- number of neutrophils in peritoneal lavage fluids (in words) ([4]; 1 mg peptide i.v. three hours later, harvest one hour later): reduced the number of neutrophils; also recorded: reduction of neutrophil influx; also recorded: partially inhibit neutrophil recruitment
- blocking of MAb NS19-9 binding to SA-Le^a-PAA (in words) [5]: blocked the binding of MAb NS 19-9
- IC50 ([5]; MAb NS19-9 5 μg/ml, solid phase SA-Le^a-PAA, read-out: IC50, blocking of MAb NS19-9 binding to SA-Le^a-PAA): 700 µM
- binding of MAb NS19-9 to peptide (in words) [6]: dose-dependent binding

Second part, the molecule after the results:

- binding of BR55-2 to monovalent peptide (in words) [1]: does not bind
Molecule: APWLYGPA (peptido-mimetic of a Lewis antigen) [SEQ ID NO: 121]

- competition with LeY for BR55-2 binding (in words) [7]: competes with LeY for BR55-2 binding
Molecule: FSLLW (peptido-mimetic of a Lewis antigen) [SEQ ID NO: 114]

- IC50 [8]: 700 µM
Molecule: DLWDWVVGKPAG [peptide …]
